Source: ChEMBL document CHEMBL1201862, “PubChem BioAssay data set” (2004)
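Five concentrations, 48 hours, 96-well plates. Here, GI50 denotes the concentration required for 50% inhibition of growth.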 The source made the active and inactive calls. No stated cut-off is given here; in the data, active = GI50 up to about 1.1 µM and inactive = higher.

How the values were obtained:
Assay in all cases: NCI-60 cell line screen, 48 h
SNB-78 = system: SNB-78
XF498 = system: XF498
LXFL 529 = system: LXFL 529
HOP-18 = system: HOP-18
DMS-114 = system: DMS-114
DMS-273 = system: DMS-273
KM-20L2 = system: KM-20L2
M19-MEL = system: M19-MEL
RXF 631 = system: RXF 631

## CCCCSC(=CC(=O)c1cccc(C(=O)C=C(SCCCC)SCCCC)n1)SCCCC
SNB-78
  GI50: > 100 µM (inactive)
XF498
  GI50: > 100 µM (inactive)
LXFL 529
  GI50: > 100 µM (inactive)
HOP-18
  GI50: > 100 µM (inactive)
DMS-114
  GI50: > 100 µM (inactive)
DMS-273
  GI50: > 100 µM (inactive)
KM-20L2
  GI50: > 100 µM (inactive)
M19-MEL
  GI50: > 100 µM (inactive)

## O=C(CCCCCCCCCCc1ccccc1)C1=C(O)CCCC1=O
SNB-78
  GI50: 52.4 µM (inactive)
XF498
  GI50: 42.5 µM (inactive)
LXFL 529
  GI50: 32.2 µM (inactive)
HOP-18
  GI50: 38.6 µM (inactive)
DMS-114
  GI50: 18.6 µM (inactive)
DMS-273
  GI50: 20.5 µM (inactive)
KM-20L2
  GI50: 32.4 µM (inactive)
M19-MEL
  GI50: 32.7 µM (inactive)

## CC1=NN(C(=O)c2ccc([N+](=O)[O-])cc2)C(=O)C1/N=N/c1ccccc1C(=O)O (stereo not drawn)
SNB-78
  GI50: > 100 µM (inactive)
LXFL 529
  GI50: > 100 µM (inactive)
DMS-114
  GI50: > 100 µM (inactive)
DMS-273
  GI50: > 100 µM (inactive)
M19-MEL
  GI50: > 100 µM (inactive)

## Cc1nc(-n2nc(-c3ccccc3)cc2-c2ccccc2)sc1C(/C=C/c1ccc([N+](=O)[O-])cc1)=N/NC(N)=S
SNB-78
  GI50: 18.7 µM (inactive)
LXFL 529
  GI50: 24.1 µM (inactive)
DMS-114
  GI50: 16.9 µM (inactive)
KM-20L2
  GI50: 40.5 µM (inactive)
M19-MEL
  GI50: 42 µM (inactive)

## CN(/N=C\c1ccnc2ccccc12)c1ccc([N+](=O)[O-])cc1
SNB-78
  GI50: > 100 µM (inactive)
RXF 631
  GI50: > 100 µM (inactive)
XF498
  GI50: > 100 µM (inactive)
LXFL 529
  GI50: 54.8 µM (inactive)
DMS-273
  GI50: 42.5 µM (inactive)
KM-20L2
  GI50: > 100 µM (inactive)
M19-MEL
  GI50: 65.3 µM (inactive)

## O=C(CC(=O)N1N=C(c2ccccc2)C(/N=N/c2ccc(C(=O)O)cc2)C1=O)Nc1ccc(F)cc1 (stereo not drawn)
SNB-78
  GI50: 42.8 µM (inactive)
RXF 631
  GI50: 36.4 µM (inactive)
XF498
  GI50: 20.4 µM (inactive)
LXFL 529
  GI50: 23.5 µM (inactive)
DMS-114
  GI50: 34.5 µM (inactive)
DMS-273
  GI50: 27.2 µM (inactive)
KM-20L2
  GI50: 46.5 µM (inactive)
M19-MEL
  GI50: 74 µM (inactive)

## Cc1cc(-c2ccccc2)nc(Nc2cc3ccccc3[nH]2)n1
SNB-78
  GI50: > 100 µM (inactive)
XF498
  GI50: > 100 µM (inactive)
LXFL 529
  GI50: > 100 µM (inactive)
DMS-114
  GI50: > 100 µM (inactive)
KM-20L2
  GI50: > 100 µM (inactive)
M19-MEL
  GI50: > 100 µM (inactive)

## O=CN/C=C/c1ccccc1
SNB-78
  GI50: > 100 µM (inactive)
RXF 631
  GI50: > 100 µM (inactive)
LXFL 529
  GI50: > 100 µM (inactive)
HOP-18
  GI50: > 100 µM (inactive)
DMS-273
  GI50: > 100 µM (inactive)
KM-20L2
  GI50: > 100 µM (inactive)
M19-MEL
  GI50: > 100 µM (inactive)

## O=C(O/N=C1/CCC/C1=C\c1ccccc1)c1ccc(Cl)cc1
SNB-78
  GI50: 32.8 µM (inactive)
XF498
  GI50: 61.5 µM (inactive)
LXFL 529
  GI50: 47.4 µM (inactive)
HOP-18
  GI50: > 100 µM (inactive)
DMS-273
  GI50: > 76.9 µM (inactive)
KM-20L2
  GI50: > 100 µM (inactive)
M19-MEL
  GI50: > 100 µM (inactive)

## O=c1nc(-c2ccccc2)c2c3c(cccn13)CCC2
SNB-78
  GI50: > 100 µM (inactive)
XF498
  GI50: > 100 µM (inactive)
LXFL 529
  GI50: > 100 µM (inactive)
DMS-114
  GI50: > 100 µM (inactive)
DMS-273
  GI50: > 100 µM (inactive)
M19-MEL
  GI50: > 100 µM (inactive)

## O=C(CCCC(=O)Nc1ccc(Cl)cc1Cl)CC(=O)c1ccc2ccccc2c1
SNB-78
  GI50: > 100 µM (inactive)
RXF 631
  GI50: > 100 µM (inactive)
LXFL 529
  GI50: > 100 µM (inactive)
HOP-18
  GI50: > 100 µM (inactive)
DMS-114
  GI50: > 100 µM (inactive)
DMS-273
  GI50: > 100 µM (inactive)
KM-20L2
  GI50: > 100 µM (inactive)
M19-MEL
  GI50: > 100 µM (inactive)

## CCC(C)CN1C(=O)NC(C)(Cc2ccccc2)C1=O (stereo not drawn)
SNB-78
  GI50: > 100 µM (inactive)
XF498
  GI50: > 100 µM (inactive)
LXFL 529
  GI50: > 100 µM (inactive)
HOP-18
  GI50: > 100 µM (inactive)
DMS-114
  GI50: > 100 µM (inactive)
DMS-273
  GI50: > 100 µM (inactive)
KM-20L2
  GI50: > 100 µM (inactive)
M19-MEL
  GI50: > 100 µM (inactive)

## COc1cc(C(C)O)c[n+](Cc2ccccc2)c1 (stereo not drawn)
SNB-78
  GI50: > 100 µM (inactive)
RXF 631
  GI50: > 100 µM (inactive)
XF498
  GI50: > 31.6 µM (inactive)
LXFL 529
  GI50: > 100 µM (inactive)
HOP-18
  GI50: > 100 µM (inactive)
DMS-114
  GI50: > 100 µM (inactive)
DMS-273
  GI50: > 100 µM (inactive)
KM-20L2
  GI50: > 100 µM (inactive)
M19-MEL
  GI50: > 100 µM (inactive)

## Cc1cccc(C(C)(C)C)c1NC(=O)CC1C(=O)Nc2ccccc2[S+]1[O-] (stereo not drawn)
SNB-78
  GI50: 54.6 µM (inactive)
RXF 631
  GI50: 70.3 µM (inactive)
XF498
  GI50: 68.9 µM (inactive)
LXFL 529
  GI50: 37.8 µM (inactive)
DMS-273
  GI50: 38.1 µM (inactive)
KM-20L2
  GI50: 57.5 µM (inactive)

## O=[N+]([O-])c1nccn1COCCO
SNB-78
  GI50: > 100 µM (inactive)
RXF 631
  GI50: > 100 µM (inactive)
XF498
  GI50: > 100 µM (inactive)
LXFL 529
  GI50: > 100 µM (inactive)
HOP-18
  GI50: 28.1 µM (inactive)
DMS-114
  GI50: > 100 µM (inactive)
DMS-273
  GI50: > 100 µM (inactive)
KM-20L2
  GI50: > 100 µM (inactive)

## Oc1ncnc2c1nnn2CCCn1nnc2c(O)ncnc21
SNB-78
  GI50: > 100 µM (inactive)
XF498
  GI50: > 100 µM (inactive)
LXFL 529
  GI50: > 100 µM (inactive)
HOP-18
  GI50: > 100 µM (inactive)
DMS-114
  GI50: > 100 µM (inactive)
DMS-273
  GI50: > 100 µM (inactive)
KM-20L2
  GI50: > 100 µM (inactive)
M19-MEL
  GI50: > 100 µM (inactive)

## COC(=O)c1c(C(=O)OC)c(-c2ccccc2)n(-c2ccccc2)c(=O)c1-c1ccccc1
SNB-78
  GI50: 54.7 µM (inactive)
XF498
  GI50: 23.1 µM (inactive)
LXFL 529
  GI50: > 100 µM (inactive)
DMS-114
  GI50: 74.1 µM (inactive)
DMS-273
  GI50: 87.7 µM (inactive)
KM-20L2
  GI50: > 100 µM (inactive)
M19-MEL
  GI50: 92.3 µM (inactive)

## N=C(c1ccccc1)N(O)C1CCCCC1
SNB-78
  GI50: > 100 µM (inactive)
LXFL 529
  GI50: > 100 µM (inactive)
HOP-18
  GI50: > 100 µM (inactive)
DMS-114
  GI50: > 100 µM (inactive)
DMS-273
  GI50: > 100 µM (inactive)
KM-20L2
  GI50: > 100 µM (inactive)
M19-MEL
  GI50: > 100 µM (inactive)

## Nc1ccccc1/C(O)=C1/CCOC1=O
SNB-78
  GI50: > 100 µM (inactive)
XF498
  GI50: > 100 µM (inactive)
LXFL 529
  GI50: > 100 µM (inactive)
DMS-114
  GI50: > 100 µM (inactive)
M19-MEL
  GI50: > 100 µM (inactive)

## COc1ccc(Cc2cc3c(cc2OCC(=O)O)OCO3)cc1
RXF 631
  GI50: > 100 µM (inactive)
DMS-114
  GI50: > 100 µM (inactive)
KM-20L2
  GI50: > 100 µM (inactive)
M19-MEL
  GI50: > 100 µM (inactive)

## O=C(CC1(O)C(=O)Nc2ccccc21)c1ccc(O)cc1 (stereo not drawn)
SNB-78
  GI50: > 100 µM (inactive)
RXF 631
  GI50: > 100 µM (inactive)
LXFL 529
  GI50: > 100 µM (inactive)
HOP-18
  GI50: > 100 µM (inactive)
DMS-114
  GI50: > 100 µM (inactive)
DMS-273
  GI50: > 100 µM (inactive)
KM-20L2
  GI50: > 100 µM (inactive)
M19-MEL
  GI50: 70.1 µM (inactive)

## C/C=C1/CCC2c3[nH]c4ccccc4c3CCN2C1 (stereo not drawn)
SNB-78
  GI50: > 100 µM (inactive)
XF498
  GI50: 55.6 µM (inactive)
LXFL 529
  GI50: > 100 µM (inactive)
DMS-114
  GI50: 93.8 µM (inactive)
DMS-273
  GI50: > 100 µM (inactive)
KM-20L2
  GI50: 97.1 µM (inactive)
M19-MEL
  GI50: 86.3 µM (inactive)

## CN1c2ccccc2NC(CC(=O)O)C2CC=CN21 (stereo not drawn)
RXF 631
  GI50: > 100 µM (inactive)
XF498
  GI50: > 100 µM (inactive)
LXFL 529
  GI50: > 100 µM (inactive)
HOP-18
  GI50: 0.117 µM (active)
DMS-114
  GI50: > 100 µM (inactive)
DMS-273
  GI50: > 100 µM (inactive)
KM-20L2
  GI50: > 100 µM (inactive)
M19-MEL
  GI50: > 100 µM (inactive)

## O=C1c2ccccc2C(=O)c2c1ccc1c3ccccc3n(-c3ccccc3)c21
SNB-78
  GI50: 21.1 µM (inactive)
RXF 631
  GI50: 7.94 µM (inactive)
LXFL 529
  GI50: 16.8 µM (inactive)
HOP-18
  GI50: 14.5 µM (inactive)
DMS-273
  GI50: 18.6 µM (inactive)
KM-20L2
  GI50: 21.5 µM (inactive)
M19-MEL
  GI50: 18.8 µM (inactive)

## CN(O)C(=S)c1ccccc1
SNB-78
  GI50: 6.43 µM (inactive)
RXF 631
  GI50: 1.48 µM (inactive)
LXFL 529
  GI50: 0.379 µM (active)
HOP-18
  GI50: > 100 µM (inactive)
DMS-114
  GI50: 1.18 µM (inactive)
DMS-273
  GI50: 0.893 µM (active)
KM-20L2
  GI50: 3.24 µM (inactive)
M19-MEL
  GI50: 1.19 µM (inactive)

## COC(=O)C1Cc2c(n(C)c3ccccc23)C(CCC(=O)O)N1Cc1ccccc1 (stereo not drawn)
SNB-78
  GI50: 32.8 µM (inactive)
RXF 631
  GI50: 36.9 µM (inactive)
XF498
  GI50: 28.1 µM (inactive)
LXFL 529
  GI50: 37 µM (inactive)
DMS-114
  GI50: 26.7 µM (inactive)
DMS-273
  GI50: 31.6 µM (inactive)
KM-20L2
  GI50: 34.9 µM (inactive)
M19-MEL
  GI50: 32.1 µM (inactive)
